Assay results reported in patent publication US20230217875A1, “IN VITRO EMBRYO RESCUE” (priority 2020, published 2023).

What was measured:
[1] = test system: Hybrid embryos of Capsella (Capsella rubella×Capsella grandiflora); assay: in vitro embryo rescue of interspecies hybrids, embryo survival; format: cell-based; details: for effect on embryo survival: MS medium supplemented with the sugar (FIG. 2A); for embryo appearance and growth: MS medium supplemented with the sugar, majority of embryos (FIGS. 2C-2H)
Method: (§1) Seeds of Arabidopsis and Capsella were surface sterilized (5% sodium hypochlorite, 0.05% Triton X-100) for 10 min, washed three times in sterile ddH2O and then plated on half Murashige and Skoog (MS) medium, i.e., MS medium as defined below but half the concentration of the included ingredients. After stratification for 3 day at 4° C., plants were grown in a growth room under long-day photoperiod (16 hours light and 8 hours darkness) at 22° C. Eight-day-old seedlings were transferred to soil and plants were grown in a growth room at 60% humidity and daily cycles of 16 hours light at 22° C. and 8 hours darkness at 18° C. For crosses, designated female flower buds were emasculated, and the pistils hand-pollinated at 2 days after emasculation.
(§2) • 70% Ethanol; • Sterilizing solution (5% sodium hypochlorite+0.01% (v/v) of Triton X-100 or TWEEN® 20); • Autoclaved water; • Murashige & Skoog (MS) medium (Murashige and Skoog 1962): MS basal salt mixture 4.4 g/L, 0.7% plant agar, pH 5.8 and vitamins (glycine 2 mg/I, myo-inositol 100 mg/I, nicotinic acid 0.5 mg/I, pyridoxine HCl 0.5 mg/I and thiamine HCl 0.1 mg/I); • Nitsch medium (Nitsch & Nitsch 1969): basal salt mixture 2.1 g/L, 0.7% plant agar, pH 5.8 and vitamins (biotin 0.05 mg/I, folic acid 0.5 mg/I, glycine 2 mg/I, myo-inositol 100 mg/I, nicotinic acid 5 mg/I, pyridoxine HCl 0.5 mg/I and thiamine HCl 0.5 mg/I);
(§3) Triploid Arabidopsis seeds were derived from crossing diploid Arabidopsis females with tetraploid Arabidopsis pollen donors. Interspecific hybrid Capsella seeds were derived from crossing Capsella rubella females with Capsella grandiflora pollen donors. Hybrid embryos were isolated at the torpedo stage, at around 8 to 9 days after pollination (DAP) for Arabidopsis and 9 to 10 DAP for Capsella.
(§4) Under a sterile hood, the siliques of the crosses were incubated for 30 s in 70% ethanol, 30 s in sterilizing solution and 30 s in sterile water. The siliques were placed on MS medium supplemented with 3% (w/v) trehalose overlaid with a filter paper and several drops of sterile liquid MS medium were added on the silique. Under a dissection microscope, the silique was opened with fine needles, and all seeds were transferred on the wet filter paper. The embryos were gently dissected and placed on the filter paper. During the dissection, the embryos and seeds should not become desiccated. The plates were sealed with Millipore tape and incubated under long-day photoperiod (16 hours light and 8 hours darkness) at 22° C.
(§5) After 5-7 days culture on MS medium with trehalose for Arabidopsis or 7-10 days for Capsella, viable embryos could be recognized by their green color and increased size that corresponded to the size of embryos at the bent cotyledon stage (FIG. 1J). Viable embryos were then transferred to Nitsch medium containing lower concentrations of trehalose, 1.5% (w/v) for Arabidopsis, 3% (w/v) for Capsella. Embryos were transferred from MS medium to Nitsch medium after two weeks. Transfer to Nitsch medium reduced vitrification, which is a frequently occurring phenomenon in tissue-cultured plants causing excessive hydration of tissues and reducing survival rate. Continued growth on MS medium for 3 weeks caused vitrification in Arabidopsis and Capsella seedlings (FIGS. 1L, 2I), but this phenomenon was suppressed by transfer to Nitsch medium (FIGS. 1M, 2J). After about two weeks of incubation, the initiation of roots could be observed (FIG. 1K) and the plantlets could be transferred to soil and continued to grow under long-day photoperiod (16 h light/8 h dark) at 22° C. in a growth room.
To rescue interspecific hybrids of Capsella, the protocol was the same as above for A. thaliana but with minor changes for the trehalose concentration. Hybrid embryos of Capsella (Capsella rubella×Capsella grandiflora) were dissected at the torpedo stage under a stereomicroscope under sterile conditions on a laminar flow bench. […]

[2] = test system: Triploid Arabidopsis thaliana (Col-0) embryos; assay: in vitro embryo rescue of interploidy hybridization (Col 2x x Col 4x), embryo survival; format: cell-based; details: for embryo appearance and growth: MS medium supplemented with the sugar, majority of triploid embryos (FIGS. 1C-1H)
Method: as §1, §2, §3
as §4, with “The siliques were placed on MS medium supplemented with 3% (w/v) trehalose overlaid with a filter paper and several drops of sterile liquid MS medium were added on the silique.” left out
as §5, with “room. […]” for “room.”

rice triploid embryos = assay: rescue of triploid rice embryos, embryo survival; format: cell-based, Oryza sativa L. cv. Suitou nourin 8
Method: To obtain triploids of cultivated rice (Oryza sativa L. cv. Suitou nourin 8), diploid plants (JP9838) were emasculated and pollinated with pollen from tetraploid plants (JP7525). Triploid hybrid embryos were dissected under sterile conditions at 10-12 days after pollination (DAP) under a stereomicroscope. The isolated embryos were cultured in vitro on MS medium supplemented with 1.5% (w/v, 43.8 mM) trehalose together with sucrose (1.5%) and compared to MS medium supplemented with only sucrose (3%). […] The viable triploid embryos were transferred to MS medium containing lower concentrations of trehalose (0.75% w/v) together with 2.25% (w/v) sucrose for two weeks, until the initiation of roots could be observed (FIG. 3F). The plantlets were transferred to soil and their ploidy levels were validated by flow cytometry.
Cultivated rice (Oryza sativa L. cv. Suitou nourin 8, diploid, JP9838, and cv. Suitou nourin 8, tetraploid, JP7525) seeds were obtained from the National Institute of Agrobiological Sciences in Japan (http://www.gene.affrc.go.jp). Rice seeds were grown on soil and cultivated in a phytotron. Cultivating conditions were 14 h light and 10 h dark at 30° C./21° C. with a constant humidity of 80% and light intensity of 400 μmol per m^−2 s^−1. For crossing, designated diploid plants were emasculated and pollination was performed immediately after emasculation.
Under a sterile hood, immature triploid rice seeds at 10-12 DAP were dehusked using a pair of tweezers and sterilized for 2 min in 70% ethanol, followed by 15 min in 5% sodium hypochlorite with gentle mixing, 2 min in sterile water. The seeds were placed on MS medium supplemented with 1.5% (w/v) trehalose together with 1.5% (w/v) sucrose overlaid with a filter paper. Under a dissection microscope, the seed coat was removed with fine needles, and dissected embryos were transferred on the wet filter paper. During the dissection, the embryos should not become desiccated. The plates were sealed with Millipore tape and incubated under long-day photoperiod (16 hours light and 8 hours darkness) at 22° C. After 5-7 days of culture on MS medium with trehalose, viable embryos could be recognized by their light green color and increased size (FIG. 3E), compared to aborted embryos with dark brown color (FIG. 3D). Viable embryos were then transferred to MS medium containing lower concentrations of trehalose, 0.75% (w/v) together with 2.25% (w/v) sucrose. After about two weeks of incubation, the initiation of roots could be observed (FIG. 3F) and the plantlets could be transferred to soil and grows in a phytotron.

[3] = MS medium with only sucrose (3%)

Structure (SMILES): O=C(CO)[C@@H](O)[C@H](O)[C@H](O)CO [fructose]
- effect on embryo survival [1]: did not improve embryo survival
- embryo appearance and growth [1]: turned from light green to white and growth was arrested
- embryo appearance and growth [2]: turned from light green to white and growth was arrested

Structure (SMILES): O=C[C@H](O)[C@@H](O)[C@@H](O)[C@H](O)CO [galactose]
- effect on embryo survival [1]: did not improve embryo survival
- embryo appearance and growth [1]: turned from light green to white and growth was arrested
- embryo appearance and growth [2]: turned from light green to white and growth was arrested

Structure (SMILES): OC[C@H]1O[C@@](CO)(O[C@H]2O[C@H](CO)[C@@H](O)[C@H](O)[C@H]2O)[C@@H](O)[C@@H]1O [sucrose]
- effect on embryo survival [1]: did not improve embryo survival
- embryo appearance and growth [1]: turned from light green to white and growth was arrested
- embryo appearance and growth (rice triploid embryos; [3]): arrested growth and turned dark brown
- embryos survived (rice triploid embryos; [3]): none
- embryo appearance and growth [2]: turned from light green to white and growth was arrested

Structure (SMILES): OC[C@H]1O[C@H](O[C@H]2O[C@H](CO)[C@@H](O)[C@H](O)[C@H]2O)[C@H](O)[C@@H](O)[C@@H]1O [trehalose]
- hybrid embryos rescued (survival rate) ([1]; MS medium supplemented with 3% (w/v) sugar, 14 days (FIG. 2A)): 80%
- highest survival rate ([1]; plates containing 6% trehalose, 14 days (FIG. 2B)): over 90%
- embryos survived (rice triploid embryos; MS medium with 1.5% (w/v) trehalose together with sucrose (1.5%), after one week of culture): Around 30%
- embryo appearance (rice triploid embryos; MS medium with 1.5% trehalose together with 1.5% sucrose, after one week): turning light green
- embryo survival rate ([2]; MS medium supplemented with 3% (w/v) sugar, embryos at torpedo stage, 14 days of in vitro culture (FIG. 1A)): over 70%
- highest survival rate ([2]; plates containing 2% (w/v) trehalose, 14 days (FIG. 1B)): over 90%
